Ki data for three molecules are collected here from ChEMBL document CHEMBL4130521, “Artificial Macrocycles as Potent p53-MDM2 Inhibitors” (ACS Med Chem Lett, 2017).

SMILES strings stand for the structures.

Chain of E3 ubiquitin-protein ligase Mdm2 (Q00987 whole entry): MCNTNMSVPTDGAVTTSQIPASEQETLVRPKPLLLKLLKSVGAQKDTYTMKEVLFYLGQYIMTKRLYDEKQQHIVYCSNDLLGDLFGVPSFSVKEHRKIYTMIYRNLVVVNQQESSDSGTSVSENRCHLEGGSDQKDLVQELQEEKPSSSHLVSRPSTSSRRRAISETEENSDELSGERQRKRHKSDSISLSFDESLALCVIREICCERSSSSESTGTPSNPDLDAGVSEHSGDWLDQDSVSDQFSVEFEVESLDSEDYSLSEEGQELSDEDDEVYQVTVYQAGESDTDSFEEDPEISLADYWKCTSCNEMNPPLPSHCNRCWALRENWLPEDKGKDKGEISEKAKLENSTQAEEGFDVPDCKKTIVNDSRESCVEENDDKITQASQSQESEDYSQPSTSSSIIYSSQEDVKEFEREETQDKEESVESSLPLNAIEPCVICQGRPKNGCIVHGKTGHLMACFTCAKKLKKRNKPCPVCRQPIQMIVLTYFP

This test has as its target E3 ubiquitin-protein ligase Mdm2 (Homo sapiens, UniProt Q00987).
Take `CCOC(=O)c1[nH]c2cc(Cl)ccc2c1C1C(=O)NCCCCCCCCCCCCCCCCCCCC(=O)N1Cc1ccc(OCc2ccc(Cl)c(Cl)c2)cc1` (stereo not drawn): the Ki result was “Not Active”.
Next, `O=C(O)c1[nH]c2cc(Cl)ccc2c1C1C(=O)NCCCCCCCCCCCCCC(=O)N1Cc1ccc(Cl)cc1` (stereo not drawn): “Not Active”; `O=C(O)c1[nH]c2cc(Cl)ccc2c1C1C(=O)NCCCCCCCCCCCCCC(=O)N1Cc1ccc(F)cc1` (stereo not drawn): “Not Active”.
